The results in this text go back to ChEMBL document CHEMBL1137672, “Synthesis and pharmacological evaluation of 2-substituted benzo[b]thiophenes as anti-inflammatory and analgesic agents” (Eur J Med Chem, 2009).

Usually inhibition in vivo stands for the change of the read-out against control, counted positive when it falls.

Series [1] concerns Rattus norvegicus. As to the kind of experiment: Analgesic activity in Sprague-Dawley rat assessed as change in latency time required to elicit jumping or hind paw licking at 25 mg/kg, sc administered 1 hr prior testing measured after 2 hrs of post dose by hot plate method relative to basal level. It counts as functional. The note with it: route subcutaneous.
Series [2] has as its system Rattus norvegicus. As to the kind of experiment: Analgesic activity in Sprague-Dawley rat assessed as change in latency time required to elicit jumping or hind paw licking at 25 mg/kg, sc administered 1 hr prior testing measured after 1 hr of post dose by hot plate method relative to basal level. It is filed as functional. The note with it: route subcutaneous. In general terms: In hot-plate and tail-flick tests a longer latency is read as antinociception.

The test system of series [3] is Rattus norvegicus. In words: Antiinflammatory against carrageenan-induced paw edema in Sprague-Dawley rat assessed as remaining paw edema at 25 mg/kg, sc administered 30 mins before carrageenan challenge measured after 2 hrs by plethysmometer relative to control. The settings on record: route subcutaneous. It is filed as functional.
The test system of series [4] is Rattus norvegicus. As to the kind of experiment: Antiinflammatory against carrageenan-induced paw edema in Sprague-Dawley rat assessed as remaining paw edema at 25 mg/kg, sc administered 30 mins before carrageenan challenge measured after 4 hrs by plethysmometer relative to control. It is filed as functional. The settings on record: route subcutaneous. For orientation: In the carrageenan paw model, swelling and tenderness develop within hours.

Series [5] has as its system Rattus norvegicus. In words: Antiinflammatory against carrageenan-induced paw edema in Sprague-Dawley rat assessed as remaining paw edema at 50 mg/kg, sc administered 30 mins before carrageenan challenge measured after 4 hrs by plethysmometer relative to control. It is filed as functional. The settings on record: route subcutaneous.
In series [6] the test system is Rattus norvegicus. In words: Gastrointestinal toxicity in Sprague-Dawley rat assessed as gastric mucosal lesion at 50 mg/kg, po daily for 1 week. It is filed as organism-based, Gastric mucosa. The arrangement: dose 50 mg/kg, route oral. The settings on record: in vivo, 168 h.
Series [7] relates to Mus musculus. As to the kind of experiment: Analgesic activity in Swiss albino mouse assessed as inhibition of acetic acid-induced abdominal constriction at 25 mg/kg, sc administered 30 mins prior to acetic acid challenge measured for 30 mins relative to control. It is filed as functional. The settings on record: Abdomen, route subcutaneous.
Series [8] relates to Rattus norvegicus. As to the kind of experiment: Antiinflammatory against carrageenan-induced paw edema in Sprague-Dawley rat assessed as remaining paw edema at 25 mg/kg, sc administered 30 mins before carrageenan challenge measured after 1 hr by plethysmometer relative to control. It is filed as functional. The settings on record: route subcutaneous.
Series [9] has as its system Rattus norvegicus. In words: Hepatotoxicity in Sprague-Dawley rat assessed as serum alanine aminotransferase level at 50 mg/kg, po daily for 1 week by Reitman-Frankel colorimetric procedure. It is filed as toxicity, organism-based. The arrangement: dose 50 mg/kg, route oral. The settings on record: in vivo, 168 h.
Series [10] deals with Rattus norvegicus. As to the kind of experiment: Antiinflammatory against carrageenan-induced paw edema in Sprague-Dawley rat assessed as remaining paw edema at 50 mg/kg, sc administered 30 mins before carrageenan challenge measured after 1 hr by plethysmometer relative to control. It counts as functional. The note with it: route subcutaneous.
Series [11] deals with Rattus norvegicus. As to the kind of experiment: Hepatotoxicity in Sprague-Dawley rat assessed as serum aspartate aminotransferase level at 50 mg/kg, po daily for 1 week by Reitman-Frankel colorimetric procedure. The note with it: in vivo, 168 h. It is filed as toxicity, organism-based. The arrangement: dose 50 mg/kg, route oral.
The test system of series [12] is Rattus norvegicus. As to the kind of experiment: Antiinflammatory against carrageenan-induced paw edema in Sprague-Dawley rat assessed as remaining paw edema at 50 mg/kg, sc administered 30 mins before carrageenan challenge measured after 3 hrs by plethysmometer relative to control. The settings on record: route subcutaneous. It counts as functional.
Series [13] relates to Rattus norvegicus. As to the kind of experiment: Antiinflammatory against carrageenan-induced paw edema in Sprague-Dawley rat assessed as remaining paw edema at 50 mg/kg, sc administered 30 mins before carrageenan challenge measured after 2 hrs by plethysmometer relative to control. It counts as functional. The note with it: route subcutaneous.
Series [14] has as its system Rattus norvegicus. As to the kind of experiment: Antiinflammatory against carrageenan-induced paw edema in Sprague-Dawley rat assessed as remaining paw edema at 25 mg/kg, sc administered 30 mins before carrageenan challenge measured after 3 hrs by plethysmometer relative to control. It is filed as functional. The settings on record: route subcutaneous.
Series [15] deals with Rattus norvegicus. As to the kind of experiment: Analgesic activity in Sprague-Dawley rat assessed as latency time required to elicit jumping or hind paw licking at 25 mg/kg, sc administered 1 hr prior testing measured after 2 hrs of post dose by hot plate method. It is filed as functional. The note with it: route subcutaneous.
Series [16] relates to Rattus norvegicus. As to the kind of experiment: Antiinflammatory against carrageenan-induced paw edema in Sprague-Dawley rat assessed as remaining paw edema at 10 mg/kg, sc administered 30 mins before carrageenan challenge measured after 3 hrs by plethysmometer relative to control. It is filed as functional. The settings on record: route subcutaneous.
Series [17] concerns Rattus norvegicus. In words: Analgesic activity in Sprague-Dawley rat assessed as change in latency time required to elicit jumping or hind paw licking at 10 mg/kg, sc administered 1 hr prior testing measured after 2 hrs of post dose by hot plate method relative to basal level. It is filed as functional. The note with it: route subcutaneous.
For series [18], the system named is Rattus norvegicus. In words: Antiinflammatory against carrageenan-induced paw edema in Sprague-Dawley rat assessed as remaining paw edema at 10 mg/kg, sc administered 30 mins before carrageenan challenge measured after 1 hr by plethysmometer relative to control. It counts as functional. The note with it: route subcutaneous.
The test system of series [19] is Rattus norvegicus. In words: Antiinflammatory against carrageenan-induced paw edema in Sprague-Dawley rat assessed as remaining paw edema at 10 mg/kg, sc administered 30 mins before carrageenan challenge measured after 2 hrs by plethysmometer relative to control. It is filed as functional. The note with it: route subcutaneous.
Series [20] concerns Rattus norvegicus. In words: Analgesic activity in Sprague-Dawley rat assessed as change in latency time required to elicit jumping or hind paw licking at 10 mg/kg, sc administered 1 hr prior testing measured after 1 hr of post dose by hot plate method relative to basal level. It is filed as functional. The note with it: route subcutaneous.
Series [21] concerns Rattus norvegicus. In words: Antiinflammatory against carrageenan-induced paw edema in Sprague-Dawley rat assessed as remaining paw edema at 10 mg/kg, sc administered 30 mins before carrageenan challenge measured after 4 hrs by plethysmometer relative to control. It is filed as functional. The settings on record: route subcutaneous.
In series [22] the test system is Mus musculus. As to the kind of experiment: Analgesic activity in Swiss albino mouse assessed as inhibition of acetic acid-induced abdominal constriction at 10 mg/kg, sc administered 30 mins prior to acetic acid challenge measured for 30 mins relative to control. It is filed as functional. The note with it: Abdomen, route subcutaneous.

As to `NNC(=O)Nc1cc2cc([N+](=O)[O-])ccc2s1`, the Activity is reported as 7.5% in the series on Rattus norvegicus [1]; 19.4% with Rattus norvegicus [2]; 71.2% with Rattus norvegicus [3]; 80% in the series on Rattus norvegicus [4]; 56.4% with Rattus norvegicus [5]; “Non-toxic” in the series with Rattus norvegicus [6]. Further, the Activity was 59.7% in the series with Rattus norvegicus [8]; “Non-toxic” in the series on Rattus norvegicus [9]; 45.9% with Rattus norvegicus [10]; “Non-toxic” in the series on Rattus norvegicus [11]; 54.3% in the series with Rattus norvegicus [12]; 45.9% with Rattus norvegicus [13]. Moreover, the Activity with Rattus norvegicus [14] is recorded as 79%. Further, the inhibition in vivo at 25 mg/kg with Mus musculus [7] is -43.4%.
As to `NNC(=O)c1cc2cc([N+](=O)[O-])ccc2s1`, the Activity with Rattus norvegicus [1] is recorded as 31.6%; in the series with Rattus norvegicus [2], 24.7%; in the series with Rattus norvegicus [3], 51.9%; with Rattus norvegicus [4], 55.9%; with Rattus norvegicus [5], 51.3%; in the series on Rattus norvegicus [6] it was “Non-toxic”. Moreover, the Activity in the series on Rattus norvegicus [8] is reported as 49.4%; in the series on Rattus norvegicus [9] it was “Non-toxic”; with Rattus norvegicus [10] it was 38.2%; with Rattus norvegicus [11], “Non-toxic”; in the series on Rattus norvegicus [12] it was 46.3%; in the series with Rattus norvegicus [13], 42.2%. The Activity in the series on Rattus norvegicus [14] is 55.9%. Also, the inhibition in vivo at 25 mg/kg with Mus musculus [7] is -88.2%.
For `O=C(N/N=C/c1c[nH]c2ccccc12)c1cc2cc([N+](=O)[O-])ccc2s1`, the Activity was 16.6% in the series with Rattus norvegicus [2]; 89.1% in the series on Rattus norvegicus [3]; 90% in the series on Rattus norvegicus [4]; 49.6% in the series on Rattus norvegicus [5]; “Non-toxic” with Rattus norvegicus [6]; 63.2% in the series on Rattus norvegicus [8]. Also, the Activity entry in the series with Rattus norvegicus [9] is recorded as “Non-toxic”; in the series with Rattus norvegicus [15], 14.72 s; in the series with Rattus norvegicus [10], 36.9%; in the series with Rattus norvegicus [11] it was “Non-toxic”; in the series with Rattus norvegicus [12], 46.6%; with Rattus norvegicus [13], 46.5%. Also, in the series on Rattus norvegicus [14], the Activity is listed as 90.1%. Besides, the inhibition in vivo at 25 mg/kg with Mus musculus [7] came to 16.9%.
On to `Cc1ccc(/C=N/NC(=O)c2cc3cc([N+](=O)[O-])ccc3s2)o1`, for which the Activity in the series on Rattus norvegicus [1] is listed as 22.39%; in the series on Rattus norvegicus [2], 19.8%; in the series on Rattus norvegicus [3], 77.2%; in the series with Rattus norvegicus [4] it was 92%; in the series with Rattus norvegicus [5] it was 40.7%; in the series with Rattus norvegicus [6], “Non-toxic”. Moreover, the Activity with Rattus norvegicus [8] is given as 55.9%; in the series with Rattus norvegicus [9], “Non-toxic”; in the series on Rattus norvegicus [10] it was 37.5%; in the series on Rattus norvegicus [11], “Non-toxic”; in the series on Rattus norvegicus [12], 41.3%; with Rattus norvegicus [13], 41.6%. The Activity with Rattus norvegicus [14] was found to be 92.2%. Further, the inhibition in vivo at 25 mg/kg with Mus musculus [7] was -43.1%.
Turning to `O=C(NNC(=S)Nc1ccccc1)c1cc2cc([N+](=O)[O-])ccc2s1`, the Activity with Rattus norvegicus [2] is on record as 36.5%; with Rattus norvegicus [3] it was 48.1%; in the series with Rattus norvegicus [4] it was 58.7%; in the series on Rattus norvegicus [5], 46.2%; with Rattus norvegicus [6], “Non-toxic”; with Rattus norvegicus [8], 40%. The Activity entry was “Non-toxic” in the series with Rattus norvegicus [9]; 16.66 s in the series on Rattus norvegicus [15]; 35.7% with Rattus norvegicus [10]; “Non-toxic” in the series with Rattus norvegicus [11]; 45.3% in the series on Rattus norvegicus [12]; 42.7% with Rattus norvegicus [13]. For the same compound, the Activity in the series on Rattus norvegicus [14] is 54.6%. Moreover, the inhibition in vivo at 25 mg/kg with Mus musculus [7] was -63.4%.
Consider `CN1C(C(=O)Nc2ccccn2)=C(O)c2ccccc2S1(=O)=O` [PIROXICAM], for which the Activity is on record as 51.4% in the series on Rattus norvegicus [16]; 8.3% in the series with Rattus norvegicus [17]; 35.9% in the series on Rattus norvegicus [18]; 42.9% with Rattus norvegicus [19]; 21.4% with Rattus norvegicus [20]; 51.4% with Rattus norvegicus [21]. For the same compound, the inhibition in vivo at 10 mg/kg in the series on Mus musculus [22] is -56.9%.
